Source: patent US6537965B1, “Amino-terminal modified parathyroid hormone (PTH) analogs” (The General Hospital Corporation, priority 1998, dated 2003)
“Also recorded” adds a separate entry of the source.

Experiments:
[1] = target: T1, hPTH-1 receptors (Homo sapiens, UniProt Q03431); assay: radioligand binding to HKRK C53 cells; set-up: expressed in transfected cells; details: average level
T1 sequence (Q03431 27-593): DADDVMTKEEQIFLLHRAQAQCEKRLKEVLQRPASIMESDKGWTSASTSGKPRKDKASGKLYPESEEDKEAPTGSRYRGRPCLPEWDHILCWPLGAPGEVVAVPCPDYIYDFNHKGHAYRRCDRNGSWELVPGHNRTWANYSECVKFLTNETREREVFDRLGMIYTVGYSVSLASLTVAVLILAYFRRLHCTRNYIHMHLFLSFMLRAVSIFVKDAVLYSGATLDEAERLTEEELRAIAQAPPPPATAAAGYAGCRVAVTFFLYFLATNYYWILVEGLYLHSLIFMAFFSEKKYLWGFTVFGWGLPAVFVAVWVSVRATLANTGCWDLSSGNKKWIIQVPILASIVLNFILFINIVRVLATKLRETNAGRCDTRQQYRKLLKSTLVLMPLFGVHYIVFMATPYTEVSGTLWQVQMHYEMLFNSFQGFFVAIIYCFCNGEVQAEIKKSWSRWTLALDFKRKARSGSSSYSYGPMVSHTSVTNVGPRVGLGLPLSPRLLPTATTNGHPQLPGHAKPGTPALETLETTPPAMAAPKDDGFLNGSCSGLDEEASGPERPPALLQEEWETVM
Text: (§1) The following cell lines were used in these studies. HKRK C53 subclones of LLC-PKI porcine renal epithelial cells which stably express human PTH-1 receptors (150,000 receptors/cell). SaOS-2 cells are transformed human osteosarcoma cells which express relatively few (10,000-20,000 per cell) human PTH-1 receptors. HPR2-7 cells are subclones of LLC-PK1 which express approximately 250,000 recombinant human PTH-2 receptors per cell. HKRK-B7 cells are subclones of LLC-PK which stably express approximately 1 million hPTH-1 receptors per cell. HPR2-22 cells are subclones of LLC-PK1 which express 1.5 million recombinant hPTH-2 receptors per cell. The HPR2-27 and HPR2-22 cell lines were created in the same fashion as the HKRK cells but employing instead type 2 PTH receptor cDNA using the transfection technique of (Bringhurst, F. R., et al., Endocrinology 132(5):2090-2098 (1993); Guo, J., et al., Endocrinology 136(9):3884-3891 (1995)).
(§2) Radioligand competition binding assays were performed at 2-8° C. for 6 hr using ^125I-[Nle^8,21]rat PTH-(1-34) (100,000 cpm/well) in the presence or absence of non-radioactive hPTH-(1-34) analogs. Cell layers were washed three times before solubilization for determination of cell-associated radioactivity.

[2] = target: T1, hPTH-1 receptors; assay: cAMP accumulation in HKRK B28 cells; type: cell-based; set-up: expressed in transfected cells; details: average level
Protocol: (§3) Intracellular cAMP accumulation, PLC activation and PTHR binding affinity were measured as previously reported (Bringhurst, F. R., et al., Endocrinology 132(5):2090-2098 (1993); Guo, J., et al., Endocrinology 136(9):3884-3891 (1995)). Intracellular cAMP accumulation was measured in extracts of cells that were exposed to human PTH peptides in the presence of isobutylmethyxanthine (IBMX, 1 mM) at 37° C. for 15 min. After terminating the reactions by aspiration and freezing in liquid nitrogen, cell monolayers were extracted with 50 mM HCl and cAMP was measured using a radioimmunoassay kit (Dupont-New England Nuclear, Boston, Mass.).

[3] = target: T2, hPTH-2 receptors (Homo sapiens, UniProt P49190); assay: cAMP accumulation in HPR2-22 cells; type: cell-based; details: average level
T2 construct: expressed in transfected cells
Text: as §1, with “The HPR2-27 and HPR2-22 cell lines were created in the same fashion as the HKRK cells but employing instead type 2 PTH receptor cDNA using the transfection technique of (Bringhurst, F. R., et al., Endocrinology 132(5):2090-2098 (1993); Guo, J., et al., Endocrinology 136(9):3884-3891 (1995)).” left out
as §3

[4] = target: T1, hPTH-1 receptors; assay: radioligand competition binding to HKRK B28 cells; set-up: expressed in transfected cells
Protocol: as §2

[5] = target: T1, hPTH-1 receptors; assay: IP3 formation in HKRK C53 cells; type: cell-based; set-up: expressed in transfected cells; details: average level
Text: as §1
PLC was activated by PTH agonists in the presence of 30 mM LiCl at 37° C. for 30 min after 16 hr of labeling with [^3H]myo-inositol (3uCi/ml) in serum-free medium containing 0.1% bovine serum albumin. The reactions were stopped by rapid aspiration and addition of cold 5% TCA. Water-soluble radiolabeled inositol trisphosphate (IP3) was isolated after ether extraction by ion-exchange chromatography (Guo, J., et al., Endocrinology 136(9):3884-3891 (1995)). […]

[6] = target: T2, hPTH-2 receptors; assay: radioligand competition binding to HPR2-7 cells; details: average level
Protocol: as §2

[7] = target: T1, hPTH-1 receptors; assay: cAMP accumulation (adenylyl cyclase activation) in HKRK C53 cells; type: cell-based; set-up: expressed in transfected cells; details: HKRK C53 cells
Text: as §1, with “HKRK-B7 cells are subclones of LLC-PK which stably express approximately 1 million hPTH-1 receptors per cell. HPR2-22 cells are subclones of LLC-PK1 which express 1.5 million recombinant hPTH-2 receptors per cell.” left out
as §3

[8] = target: T2, hPTH-2 receptors; assay: cAMP measurements in clonal LLC-PK1 cells (HPR2-7); type: cell-based; details: HPR2-7 cells; average level
Text: as §1, with “HKRK-B7 cells are subclones of LLC-PK which stably express approximately 1 million hPTH-1 receptors per cell. HPR2-22 cells are subclones of LLC-PK1 which express 1.5 million recombinant hPTH-2 receptors per cell.” left out
as §3

[9] = target: T1, hPTH-1 receptors; assay: phospholipase C (PLC) activity in HKRK-B7 cells; type: cell-based; set-up: expressed in transfected cells; details: about 1 million hPTH-1 receptors per cell, 1000 nM (FIG. 4)
Text: as §1
(§4) PLC was activated by PTH agonists in the presence of 30 mM LiCl at 37° C. for 30 min after 16 hr of labeling with [^3H]myo-inositol (3uCi/ml) in serum-free medium containing 0.1% bovine serum albumin. The reactions were stopped by rapid aspiration and addition of cold 5% TCA. Water-soluble radiolabeled inositol trisphosphate (IP3) was isolated after ether extraction by ion-exchange chromatography (Guo, J., et al., Endocrinology 136(9):3884-3891 (1995)). In experiments involving HEK 293 cells, cells previously transfected with human PTHR cDNA (in the pcDNA1 expression vector HKRK) using Lipofectamine (Gibco BRL) were labeled with [^3H]myo-inositol and assayed as described above, except that total water-soluble [^3H]inositol polyphosphates were collected as a single fraction from the ion-exchange columns.

[10] = target: T1, hPTH-1 receptors; assay: cAMP measurements in SaOS-2 cells; type: cell-based; set-up: expressed in transfected cells; details: SaOS-2 cells, 10,000-20,000 human PTH-1 receptors per cell; up to 1 uM (FIG. 2)
Text: as §1, §3

[11] = target: T1, hPTH-1 receptors; assay: AC activation in HKRK B7 cells; type: cell-based; set-up: expressed in transfected cells; details: HKRK B7 cells (large number of human PTH-1 receptors)
Text: as §1, §3

[12] = target: T1, hPTH-1 receptors; assay: PLC activation in HEK-293 cells transiently transfected with human PTHR cDNA; type: cell-based; set-up: expressed in transfected cells; host or cells: HEK-293 human embryonic kidney cells, transient transfection with Lipofectamine; details: HEK-293 cells transiently transfected with human PTHR cDNA (data not shown)
Protocol: as §4

[13] = target: T2, hPTH-2 receptors; assay: phospholipase C activation in HPR2-22 cells; type: cell-based; details: 1.5 million hPTH-2 receptors per cell, 1,000 nM (FIG. 5)
Text: as §1, §4

T2 sequence (P49190 25-550): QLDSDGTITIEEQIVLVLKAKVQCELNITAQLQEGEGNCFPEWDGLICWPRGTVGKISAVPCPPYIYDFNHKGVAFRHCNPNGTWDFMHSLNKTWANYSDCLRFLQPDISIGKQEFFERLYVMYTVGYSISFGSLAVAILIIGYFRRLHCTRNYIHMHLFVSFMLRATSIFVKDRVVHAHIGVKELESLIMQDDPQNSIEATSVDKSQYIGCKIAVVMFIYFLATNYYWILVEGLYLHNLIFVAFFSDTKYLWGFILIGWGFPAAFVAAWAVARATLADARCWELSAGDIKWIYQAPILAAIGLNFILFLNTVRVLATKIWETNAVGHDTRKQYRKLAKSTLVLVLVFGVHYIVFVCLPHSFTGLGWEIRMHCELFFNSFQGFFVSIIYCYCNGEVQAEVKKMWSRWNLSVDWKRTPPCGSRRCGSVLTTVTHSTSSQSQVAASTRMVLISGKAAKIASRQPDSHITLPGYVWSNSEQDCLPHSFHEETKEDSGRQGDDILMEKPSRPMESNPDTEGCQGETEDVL

binding in the presence of maximal concentrations of peptide [1] [cpm/well]	cAMP accumulation in the presence of maximal concentrations of peptide [2] [pmoles/well/15 min]	cAMP accumulation in the presence of maximal concentrations of peptide [3] [pmoles/well/15 min]	binding in the presence of maximal concentrations of peptide ([4]; HKRK B28 cells, average level)	IP3 formation in the presence of maximal concentrations of peptide [5] [cpm/well]	binding in the presence of maximal concentrations of peptide [6] [cpm/well]	cAMP accumulation in the presence of maximal concentrations of peptide ([7]; average level) [pmoles/well/15 min]	cAMP accumulation in the presence of maximal concentrations of peptide [8] [pmoles/well/15 min]	activation of PLC [9]	cyclase (cAMP) activity compared with control hPTH(1-34) [10]	competitive displacement of 125I-[Nle8,21]rPTH(1-34) radioligand binding ([4]; HKRK B28 cells, 280,000 human PTH-1 receptors/cell (FIG. 6))	cyclic AMP accumulation, efficacy compared with native hPTH(1-34)NH2 ([7]; about 150,000 hPTH-1 receptors per cell, 10^-9M and 10^-7M peptide (FIG. 1))	activation of PLC [12]	activation of phospholipase C [13]	activation of PLC ([9]; listed as Human PTH(2-34))	Compound	activation of AC compared with hPTH-(1-34) [11]
956±135	337±55	286±8	16,137±919 cpm/well	1908±251	4541±386	207±37	133±14	fill agonists							CC[C@H](C)[C@H](NC(=O)[C@H](CCC(=O)O)NC(=O)[C@H](CO)NC(=O)[C@@H](NC(=O)[C@@H](N)CO)C(C)C)C(=O)N[C@@H](CCC(N)=O)C(=O)N[C@@H](CC(C)C)C(=O)N[C@@H](CCSC)C(=O)N[C@@H](Cc1c[nH]cn1)C(=O)N[C@@H](CC(N)=O)C(=O)N[C@@H](CC(C)C)C(=O)NCC(=O)N[C@@H](CCCCN)C(=O)N[C@@H](Cc1c[nH]cn1)C(=O)N[C@@H](CC(C)C)C(=O)N[C@@H](CC(N)=O)C(=O)N[C@@H](CO)C(=O)N[C@@H](CCSC)C(=O)N[C@@H](CCC(=O)O)C(=O)N[C@@H](CCCNC(=N)N)C(=O)N[C@H](C(=O)N[C@@H](CCC(=O)O)C(=O)N[C@@H](Cc1c[nH]c2ccccc12)C(=O)N[C@@H](CC(C)C)C(=O)N[C@@H](CCCNC(=N)N)C(=O)N[C@@H](CCCCN)C(=O)N[C@@H](CCCCN)C(=O)N[C@@H](CC(C)C)C(=O)N[C@@H](CCC(N)=O)C(=O)N[C@@H](CC(=O)O)C(=O)N[C@H](C(=O)N[C@@H](Cc1c[nH]cn1)C(=O)N[C@@H](CC(N)=O)C(=O)N[C@@H](Cc1ccccc1)C(N)=O)C(C)C)C(C)C [hPTH(1-34)NH2]	
								did not elicit PLC activity	very weak agonists	binds as well	similarly reduced activity	inability	only a partial agonist	inactive	hPTH(2-34): N-truncated human PTH peptide, residues 2-34 (VSEIQLMHNLGKHLNSMERVEWLRKKLQDVHNF)	comparable in magnitude and sensitivity to that of hPTH-(1-34); also recorded: approximately equipotent
